Reference: patent publication US11878975B2, “Substituted indole compounds useful as TLR inhibitors” (BRISTOL-MYERS SQUIBB COMPANY, priority 2017, dated 2024)

Legend:
Type in all cases: cell-based
human TLR7 = target: T1, human TLR7 (Homo sapiens, UniProt Q9NYK1); assay: TLR7 inhibition reporter assay (HEK-Blue cells, SEAP reporter, gardiquimod stimulation); conditions: HEK-Blue cells overexpressing human TLR7, SEAP reporter, gardiquimod 7.5 μM
T1 construct: host or cells: HEK-Blue cells
T1 sequence (Q9NYK1 27-1049): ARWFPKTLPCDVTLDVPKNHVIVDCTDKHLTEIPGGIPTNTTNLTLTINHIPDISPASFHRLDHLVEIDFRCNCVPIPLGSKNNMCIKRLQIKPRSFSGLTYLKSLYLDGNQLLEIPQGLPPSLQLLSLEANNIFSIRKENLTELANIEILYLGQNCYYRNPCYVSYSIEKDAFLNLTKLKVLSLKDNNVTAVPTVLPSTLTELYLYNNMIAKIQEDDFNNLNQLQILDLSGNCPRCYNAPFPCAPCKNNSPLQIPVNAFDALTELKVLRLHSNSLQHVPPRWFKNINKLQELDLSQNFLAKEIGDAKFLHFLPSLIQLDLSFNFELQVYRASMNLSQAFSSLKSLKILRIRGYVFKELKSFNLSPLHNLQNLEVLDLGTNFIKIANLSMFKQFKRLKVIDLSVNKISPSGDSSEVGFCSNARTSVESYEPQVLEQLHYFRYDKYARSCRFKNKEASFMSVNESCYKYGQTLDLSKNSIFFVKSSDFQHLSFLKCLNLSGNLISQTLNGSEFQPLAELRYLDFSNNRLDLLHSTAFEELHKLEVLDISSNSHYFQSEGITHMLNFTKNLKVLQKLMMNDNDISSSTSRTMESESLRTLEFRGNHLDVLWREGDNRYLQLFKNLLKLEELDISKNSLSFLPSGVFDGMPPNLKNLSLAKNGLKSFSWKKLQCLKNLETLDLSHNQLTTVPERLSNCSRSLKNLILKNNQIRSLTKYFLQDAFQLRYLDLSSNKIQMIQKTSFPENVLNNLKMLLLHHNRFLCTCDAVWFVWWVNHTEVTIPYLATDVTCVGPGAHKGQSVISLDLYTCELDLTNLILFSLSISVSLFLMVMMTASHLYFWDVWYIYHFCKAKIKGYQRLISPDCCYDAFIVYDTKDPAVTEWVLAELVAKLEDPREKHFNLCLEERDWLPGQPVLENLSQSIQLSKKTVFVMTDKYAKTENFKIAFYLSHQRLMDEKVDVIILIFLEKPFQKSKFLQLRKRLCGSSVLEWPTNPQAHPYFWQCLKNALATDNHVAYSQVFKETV
Summary of the method: (§1)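 Dose range 0.05 nM–50 μM; 30 min preincubation, RT. Agonists: TLR7 gardiquimod 7.5 μM, TLR8 R848 15.9 μM, TLR9 ODN2006 5 nM. 22 h, 37 °C, 5% CO2. SEAP (IFN-β minimal promoter with NF-κB/AP-1 sites) via colorimetric detection medium; % inhibition vs agonist+DMSO and reference-inhibitor wells.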

human TLR8 = target: T2, human TLR8 (Homo sapiens, UniProt Q9NR97); assay: TLR8 inhibition reporter assay (HEK-Blue cells, SEAP reporter, R848 stimulation); conditions: HEK-Blue cells overexpressing human TLR8, SEAP reporter, R848 15.9 μM
T2 construct: host or cells: HEK-Blue cells
T2 sequence (Q9NR97 27-1041): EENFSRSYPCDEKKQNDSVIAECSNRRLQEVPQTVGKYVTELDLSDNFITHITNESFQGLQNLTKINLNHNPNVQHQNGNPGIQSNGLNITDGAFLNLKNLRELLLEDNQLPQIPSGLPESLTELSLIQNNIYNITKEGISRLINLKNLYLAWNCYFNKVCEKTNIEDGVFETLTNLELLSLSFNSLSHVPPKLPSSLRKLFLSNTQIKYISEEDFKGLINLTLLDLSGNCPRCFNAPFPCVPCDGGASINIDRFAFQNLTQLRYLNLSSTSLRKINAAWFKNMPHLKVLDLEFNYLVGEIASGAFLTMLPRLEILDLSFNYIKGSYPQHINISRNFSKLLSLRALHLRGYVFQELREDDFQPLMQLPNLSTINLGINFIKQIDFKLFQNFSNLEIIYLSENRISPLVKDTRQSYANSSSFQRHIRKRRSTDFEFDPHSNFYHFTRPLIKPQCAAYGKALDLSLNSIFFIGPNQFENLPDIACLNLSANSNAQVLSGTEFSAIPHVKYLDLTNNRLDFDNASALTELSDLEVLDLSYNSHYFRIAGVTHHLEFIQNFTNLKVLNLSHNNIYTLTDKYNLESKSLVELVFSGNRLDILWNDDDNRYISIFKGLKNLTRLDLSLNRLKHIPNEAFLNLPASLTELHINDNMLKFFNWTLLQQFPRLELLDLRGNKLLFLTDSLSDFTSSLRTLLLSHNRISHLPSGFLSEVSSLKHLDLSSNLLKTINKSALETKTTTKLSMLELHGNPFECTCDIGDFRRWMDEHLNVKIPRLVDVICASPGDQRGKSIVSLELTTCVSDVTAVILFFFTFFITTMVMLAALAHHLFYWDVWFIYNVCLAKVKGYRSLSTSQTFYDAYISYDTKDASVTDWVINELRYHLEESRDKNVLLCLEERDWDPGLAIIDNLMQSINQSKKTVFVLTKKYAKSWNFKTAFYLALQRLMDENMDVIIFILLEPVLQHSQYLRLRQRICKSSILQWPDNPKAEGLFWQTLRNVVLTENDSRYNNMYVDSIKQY
Summary of the method: as §1

human TLR9 = target: T3, human TLR9 (Homo sapiens, UniProt Q9NR96); assay: TLR9 inhibition reporter assay (HEK-Blue cells, SEAP reporter, ODN2006 stimulation); conditions: HEK-Blue cells overexpressing human TLR9, SEAP reporter, ODN2006 5 nM
T3 construct: host or cells: HEK-Blue cells
T3 sequence (Q9NR96 26-1032): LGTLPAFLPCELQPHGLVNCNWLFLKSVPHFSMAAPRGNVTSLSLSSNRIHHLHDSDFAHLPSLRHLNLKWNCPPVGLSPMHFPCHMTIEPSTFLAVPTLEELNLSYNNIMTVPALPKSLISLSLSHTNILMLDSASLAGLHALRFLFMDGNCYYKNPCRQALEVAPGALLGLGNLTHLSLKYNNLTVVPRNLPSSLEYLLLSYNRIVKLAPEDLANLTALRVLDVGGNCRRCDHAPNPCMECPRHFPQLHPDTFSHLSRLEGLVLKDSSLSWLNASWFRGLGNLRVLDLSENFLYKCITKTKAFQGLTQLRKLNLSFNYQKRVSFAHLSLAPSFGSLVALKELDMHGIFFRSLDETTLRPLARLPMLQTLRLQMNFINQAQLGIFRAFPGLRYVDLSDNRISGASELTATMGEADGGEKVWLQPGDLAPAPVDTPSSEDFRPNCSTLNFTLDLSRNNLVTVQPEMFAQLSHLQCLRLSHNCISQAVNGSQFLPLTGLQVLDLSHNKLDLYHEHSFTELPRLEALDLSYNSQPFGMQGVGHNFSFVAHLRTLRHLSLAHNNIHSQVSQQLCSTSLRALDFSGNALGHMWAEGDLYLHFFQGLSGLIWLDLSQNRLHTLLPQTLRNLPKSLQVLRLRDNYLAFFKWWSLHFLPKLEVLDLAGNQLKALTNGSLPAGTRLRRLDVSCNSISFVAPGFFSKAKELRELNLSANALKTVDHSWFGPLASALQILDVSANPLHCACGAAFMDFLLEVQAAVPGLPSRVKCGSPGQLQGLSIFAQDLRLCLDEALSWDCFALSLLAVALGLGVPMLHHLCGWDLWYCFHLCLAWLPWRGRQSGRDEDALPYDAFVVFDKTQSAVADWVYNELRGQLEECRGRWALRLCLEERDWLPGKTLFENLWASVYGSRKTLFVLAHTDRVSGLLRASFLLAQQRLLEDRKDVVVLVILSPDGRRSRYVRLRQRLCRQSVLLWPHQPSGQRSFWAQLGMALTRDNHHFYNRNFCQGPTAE
Summary of the method: as §1

Compound	IC50 (human TLR7) [nM]	IC50 (human TLR8) [nM]	IC50 (human TLR9) [nM]
COc1cc(-c2[nH]c3ccc(C4CN(C)CCO4)cc3c2C(C)C)cn2ncnc12 (stereo not drawn) [Example 299]	2	3.3	5570
COc1cc(-c2[nH]c3ccc(C4CN(C(C)C)CCO4)cc3c2C(C)C)cn2ncnc12 (stereo not drawn) [Example 300]	2	6.4	2500
Cc1cc(-c2[nH]c3ccc(C4CN(C(C)C)CCO4)cc3c2C(C)C)cc(C)n1 (stereo not drawn) [Example 303]	15	12	699
CNC(=O)CN1CCOC(c2ccc3[nH]c(-c4cc(C)c5ncnn5c4)c(C(C)C)c3c2)C1 (stereo not drawn) [Example 307]	8	47	> 50000
CNC(=O)CN1CCOC(c2ccc3[nH]c(-c4cc(OC)c5ncnn5c4)c(C(C)C)c3c2)C1 (stereo not drawn) [Example 310]	15	57	> 50000
CNC(=O)CN1CCOC(c2ccc3[nH]c(-c4cn5ncnc5c(C)c4C)c(C(C)C)c3c2)C1 (stereo not drawn) [Example 311]	17	38	> 50000
Cc1c(-c2[nH]c3ccc(C4CN(CC(=O)N(C)C)CCO4)cc3c2C(C)C)cn2ncnc2c1C (stereo not drawn) [Example 312]	46	21	> 50000
CNC(=O)CN1CCOC(c2ccc3[nH]c(-c4cn5ncnc5c(C)c4C)c(C(C)C)c3c2)C1 (stereo not drawn) [Example 313]	25	60	> 50000
CNC(=O)CN1CCOC(c2ccc3[nH]c(-c4cc(C)c5ncnn5c4)c(C(C)C)c3c2)C1 (stereo not drawn) [Example 317]	12	90	> 50000
Cc1cc(-c2[nH]c3ccc(C4CN(CC(N)=O)CCO4)cc3c2C(C)C)cn2ncnc12 (stereo not drawn) [Example 318]	6	48	> 50000
CNC(=O)CN1CCOC(c2ccc3[nH]c(-c4cc(C)nc(C)c4)c(C(C)C)c3c2)C1 (stereo not drawn) [Example 323]	35	54	> 50000
Cc1cc(-c2[nH]c3ccc(C4CN(CC(N)=O)CCO4)cc3c2C(C)C)cc(C)n1 (stereo not drawn) [Example 324]	44	114	45000
CNC(=O)CN1CCOC(c2ccc3[nH]c(-c4cc(C)nc(C)c4)c(C(C)C)c3c2)C1 (stereo not drawn) [Example 325]	29	21	36800

More lines, in order of falling IC50 (human TLR7), values ahead:

IC50 (human TLR7) [nM]	IC50 (human TLR8) [nM]	IC50 (human TLR9) [nM]	Compound
89	108	> 50000	Cc1cc(-c2[nH]c3ccc(C4CN(C5COC5)CCO4)cc3c2C(C)C)cc(C)n1 (stereo not drawn) [Example 304]
69	86	20300	Cc1cc(-c2[nH]c3ccc(C4CN(CC(=O)N(C)C)CCO4)cc3c2C(C)C)cc(C)n1 (stereo not drawn) [Example 322]
32	0.94	1010	Cc1cc(-c2[nH]c3ccc(C4CN(C(C)C)CCO4)cc3c2C(C)C)cc(C)n1 (stereo not drawn) [Example 305]
24	13	> 50000	COc1cc(-c2[nH]c3ccc(C4CN(CC(=O)N(C)C)CCO4)cc3c2C(C)C)cn2ncnc12 (stereo not drawn) [Example 314]
16	54	> 50000	Cc1c(-c2[nH]c3ccc(C4CN(CC(N)=O)CCO4)cc3c2C(C)C)cn2ncnc2c1C (stereo not drawn) [Example 320]
15	25	> 50000	Cc1c(-c2[nH]c3ccc(C4CN(CC(=O)N(C)C)CCO4)cc3c2C(C)C)cn2ncnc2c1C (stereo not drawn) [Example 321]
14	24	> 50000	Cc1c(-c2[nH]c3ccc(C4CN(CC(N)=O)CCO4)cc3c2C(C)C)cn2ncnc2c1C (stereo not drawn) [Example 319]
9	26	> 50000	CNC(=O)CN1CCOC(c2ccc3[nH]c(-c4cc(OC)c5ncnn5c4)c(C(C)C)c3c2)C1 (stereo not drawn) [Example 315]
8	39	> 50000	Cc1cc(-c2[nH]c3ccc(C4CN(CC(=O)N(C)C)CCO4)cc3c2C(C)C)cn2ncnc12 (stereo not drawn) [Example 306, 2-(2-(3-isopropyl-2-(8-methyl-[1,2,4]triazolo[1,5-a]pyridin-6-yl)-1H-indol-5-yl)morpholino)-N,N-dimethylacetamide]
7	0.56	6140	COc1cc(-c2[nH]c3ccc(C4CN(C)CCO4)cc3c2C(C)C)cn2ncnc12 (stereo not drawn) [Example 301]
3	6.3	8260	Cc1cc(-c2[nH]c3ccc(C4CN(C)CCO4)cc3c2C(C)C)cn2ncnc12 (stereo not drawn) [Example 296]
2	1.1	10100	Cc1cc(-c2[nH]c3ccc(C4CN(C)CCO4)cc3c2C(C)C)cn2ncnc12 (stereo not drawn) [Example 293]
2	0.61	6630	Cc1cc(-c2[nH]c3ccc(C4CN(C)CCO4)cc3c2C(C)C)cn2ncnc12 (stereo not drawn) [Example 297]
2	0.42	2600	COc1cc(-c2[nH]c3ccc(C4CN(C(C)C)CCO4)cc3c2C(C)C)cn2ncnc12 (stereo not drawn) [Example 302]
